From US20150080292A1 (priority 2013, published 2015) come the findings set out here.

By IC50 is commonly meant the concentration at which inhibition is half-maximal. A word on the IC90: it is the point of the concentration-response curve where the effect stands at 90%.

In one data set the test system is Fusarium oxysporum. Put plainly: Anti-fungus plate experiment (growth diameter on LB medium with drug). Format: cell-based. The settings on record: LB plates, 28° C. As for the experimental part: (§1) The anti-fungi experiment, with 6 treatments of different drug concentration and three replicates each treatment and sterile water as blank check, was conducted by mixing Locillomycin-A, Locillomycin-B and Locillomycin-C separately into different plates containing LB medium and, then, inoculating pathogenic fungi in the center of the plates, followed by incubation at 28° C. to check the effectiveness of antifungal function. The criteria of the effectiveness were defined as the size of orthogonal cross diameter of the pathogen growth.

The subject of another data set is Rhizoctonia solani. The description is as above. The format is cell-based. The settings on record: LB plates, 28° C. As to the method: as §1
The subject of the next data set is Fusarium graminearum. The settings on record: LB plates, 28° C.
The conditions of data set [1]: solvents in which the compound dissolves.

Values after ≈ are worked out from the molar mass of the structure shown. Where a SMILES comes first, the peptide text is derived from it. Bridges are numbered along the chain shown (N, C = ends). The star is where a group is joined. Pentadecanoyl = CCCCCCCCCCCCCCC(=O)*; Tridecanoyl = CCCCCCCCCCCCC(=O)*; Myristoyl = CCCCCCCCCCCCCC(=O)*

Turning to `CCCCCCCCCCCCCCC(=O)NC1C(=O)NC(CCC(N)=O)C(=O)NC(CC(=O)O)C(=O)NCC(=O)NC(CC(N)=O)C(=O)NC(CC(=O)O)C(=O)NCC(=O)NC(Cc2ccc(O)cc2)C(=O)NC(C(C)C)C(=O)OC1C` (stereo not drawn) [Locillomycin-C] (Pentadecanoyl-TQDGNDGYV; ester 1-C; configuration not given here), the values for the IC50 in the data set on Fusarium oxysporum, in the data set on Rhizoctonia solani and with Fusarium graminearum were 10.3 µg/mL (≈ 8.77 µM), 12.4 µg/mL (≈ 10.6 µM) and 21.7 µg/mL (≈ 18.5 µM), respectively. Besides, the IC90 was 46.8 µg/mL (≈ 39.9 µM) in the data set on Fusarium oxysporum, 38.6 µg/mL (≈ 32.9 µM) with Rhizoctonia solani and greater than 100 µg/mL with Fusarium graminearum. In addition, the Solubility entry in data set [1] is on record as “Methanol, Dimethyl”.

With `CCCCCCCCCCCCC(=O)NC1C(=O)NC(CCC(N)=O)C(=O)NC(CC(=O)O)C(=O)NCC(=O)NC(CC(N)=O)C(=O)NC(CC(=O)O)C(=O)NCC(=O)NC(Cc2ccc(O)cc2)C(=O)NC(C(C)C)C(=O)OC1C` (stereo not drawn) [Locillomycin-A] (Tridecanoyl-TQDGNDGYV; ester 1-C; configuration not given here), the IC50 came to 12.5 µg/mL (≈ 10.9 µM) in the data set with Fusarium oxysporum, 15.5 µg/mL (≈ 13.5 µM) in the data set on Rhizoctonia solani and 25.4 µg/mL (≈ 22.2 µM) with Fusarium graminearum. Moreover, the concentration for an effect of 90% (IC90) with Fusarium oxysporum was 56.3 µg/mL (≈ 49.1 µM); in the data set on Rhizoctonia solani it was 45.9 µg/mL (≈ 40 µM); with Fusarium graminearum, greater than 100 µg/mL. Moreover, the Solubility entry in data set [1] is on record as “Methanol, Dimethyl”.

As for `CCCCCCCCCCCCCC(=O)NC1C(=O)NC(CCC(N)=O)C(=O)NC(CC(=O)O)C(=O)NCC(=O)NC(CC(N)=O)C(=O)NC(CC(=O)O)C(=O)NCC(=O)NC(Cc2ccc(O)cc2)C(=O)NC(C(C)C)C(=O)OC1C` (stereo not drawn) [Locillomycin-B] (Myristoyl-TQDGNDGYV; ester 1-C; configuration not given here), the IC50 came to 11.6 µg/mL (≈ 10 µM) with Fusarium oxysporum, 13.8 µg/mL (≈ 11.9 µM) with Rhizoctonia solani and 22.6 µg/mL (≈ 19.5 µM) with Fusarium graminearum. The results for the IC90 in the data set with Fusarium oxysporum, with Rhizoctonia solani and with Fusarium graminearum were 48.9 µg/mL (≈ 42.1 µM), 40.6 µg/mL (≈ 35 µM) and greater than 100 µg/mL, respectively. For the same molecule, the Solubility result in data set [1] is recorded as “Methanol, Dimethyl”.
